For test [1], the target named is T1, hDGKalpha(1-735)-N-His (DGKA) (Homo sapiens, UniProt P23743).
T1 construct: hDGKalpha(1-735)-N-His; His (N)
The experiment in a line: In vitro DGK inhibition assay (ADP-Glo, in house), DGK alpha. The test is classed as biochemical. The following applies: isomer A; 4 nM DGK α, 25 μM ATP, 125 μM DLG in liposomes, 1 hour reaction; read-out: DGKalpha ADP Glo assay IC50. As to the method: (§1) DGK α and ζ kinase use ATP to phosphorylate the substrate 1,2-dilauroyl-sn-glycerol (DLG, incorporated in the liposomes). ATP is converted to ADP as a result of this enzymatic reaction.
(§2) After the kinase reaction, an ATP-depletion reagent is added to terminate the kinase reaction and deplete any remaining ATP, leaving only ADP. Second, a detection reagent is added to simultaneously convert ADP to ATP and allow the newly synthesized ATP to be converted to light using a coupled luciferase/luciferin reaction.
(§3) Full length DGKA and Z were expressed in Sf21 insect cells by infecting the cells with the baculovirus stock at MOI of 2. Purification of both enzymes was performed as previously described by Takahashi et al., PeerJ, 2018 (Takahashi, D.; Sakane, F. Expression and purification of human diacylglycerolkinase alpha from baculovirus-infected insect cells for structural studies. PeerJ2018, 6, No. e5449).
(§4) A concentrated liposome solution was prepared in assay buffer without DTT and BSA: 2 mM of DLG in 21 mM of total liposome (2 mM DLG/8 mM PS/11 mM PC). The reaction mixtures contain the assay buffer with a final DLG concentration of 125 μM ATP concentrations of 25 μM (for DGKA assay) or 50 μM (for DGKZ assay). The reactions were started by addition of DGK α and ζ kinases at 4 nM and 2 nM final concentrations, respectively. After 1 hour reaction, the amount of ADP formed was detected with the ADP-Glo kinase assay (Promega) according to the manufacturer instructions. Compounds were added in 11I-points dose response, starting at 10 mM, 1:3 dilutions, with a final DMSO concentration of […]. The multidrop combi was used as a liquid handler and luminescence was read with 0.5 s by the envision reader (PE).

Test [2] deals with T2, hDGKzeta(1-928)-N-His (DGKZ) (Homo sapiens, UniProt Q13574).
T2 construct: hDGKzeta(1-928)-N-His; His (N)
The experiment in a line: In vitro DGK inhibition assay (ADP-Glo, in house), DGK zeta. To be noted: isomer A; 2 nM DGK ζ, 50 μM ATP, 125 μM DLG in liposomes, 1 hour reaction; read-out: DGKzeta ADP Glo assay IC50. The test is classed as biochemical. The procedure:
as §1, §2, §3, §4

Test [3] relates to primary human T-cells. The experiment in a line: IL2 secretion measurements in CD3-stimulated T-cells. The test is classed as cell-based. To be noted: isomer A; for pEC50: CD3 antibody-stimulated T-cells, IL2 in supernatant after 24 hours, read-out: Tcell IL2 CD3 EC50; for Emax / Emax IL2 (% activation): CD3 condition, 24 hours, 20 μM reference compound A1 = 100%, DMSO neutral control; for Emax: read-out: Emax IL2 (% activation). The procedure:
As readouts for T-cell activation, IL2 secretion after 24 hours and proliferation after 5 days was measured. Increases in IL2 secretion and proliferation upon compound treatment were assessed as the % of the maximum of reference compound A1. WO 2016/139181 discloses reference compound A1 as example 70. As a counter screen and to make sure that no unwanted TCR-independent activation was triggered, PBS conditions were run for all compounds.
Expanded primary human T-cells were thawed and cultured in RPMI 1640 (Gibco, #61870-010)+5% human serum (HS, Sigma, #H3667)+1 mM Sodium Pyruvate (Gibco, #11360-039)+50 μM 2-mercaptoethanol (Gibco, #31350-010) and lx Pen-Strep (Life Technologies, #15140122) medium at density of 2 Mio/ml for 3 hours in 5% CO2, 37° C. and 95% humidity. For coating of plates, […] or PBS++ with CD3 antibody (concentration depending on donor and determined by CD3 titrations) was added 100 μl/well to Poly-D Lysine coated 96-well plates. Plates were sealed and incubated at room temperature for 3 hours on a table-top rocking platform. After incubation, plates were washed once with PBS−− and filled with 40 μl/well culture medium only. Compounds were then added (see next section) to medium only plates. After 3 hours of culturing the T-cells, cells were filtered through a cell strainer (Miltenyi Biotech, #130-041-407), counted again and concentration was adjusted to 1.25 Mio/ml.
Cells were then seeded 80 μl/well to the 40 μl/well including dispensed compounds according to plate layout. By adding cells, compounds were further diluted 1:3, and resulting in 100k cells/120 μl/well. After 24 hours 40 μl of supernatant was collected carefully from the top while not disturbing the cells and transferred into a round bottom 96 well plate. Collected and frozen supernatant was used for detection of IL2 using the IL-2 Human ProQuantum Immunoassay Kit (Invitrogen) or using the Human IL-2 ELISA Kit (Thermo Fisher).
Compounds were added in a 5 or 6 pt dose response with the Tecan D300e Digital Dispenser, all conditions 3 times more concentrated than the end-concentration, since cells are added afterwards (80 μl cells to 40 μl prepared medium with treatment). The DR was starting at 20 μM or 10 μM final top concentration and a dilution factor of 3.333. The positive control was the reference compound A1 that was added in a dose response as well, additionally to 3 wells of only 20 μM representing the positive stimulator control. All wells were normalized with DMSO to a final concentration of 0.6% (0.2% end-concentration).
The immunoassay is done following the manufacturer's manual (Invitrogen, #A35603).
Additional information: For the immunoassay, MicroAmp™ EnduraPlate™ Optical 384-Well plates are used. Frozen supernatant is thawed and centrifuged for 5 minutes at 1000×g, both steps at 4° C. After centrifugation, required sample amount is taken from the top, and in a separate LightCycler V-bottom plate (working plate) diluted with assay dilution buffer, dilution factor depending on the PBS or CD3 condition but at least 1:3. IL-2 standard and blanks are prepared in the same V-bottom plate, standard with a range of […] (extended version). After preparation, […] of sample dilutions or standard/blanks are transferred to the optical 384-well plate (assay plate) and the 10 μl reaction protocol is being followed. For measurement, the QuantStudio 12K Flex system is used. Raw data is extracted and IL-2 concentrations are calculated with the Thermo Fisher online app (apps.thermofisher.com/apps/proquantum).
ELISA is done following the manufacturer's manual (Thermo Fisher Scientific, #88-7025-88).
Additional information: For the ELISA Nunc MaxiSorp 96 well plates are used. Frozen supernatant is thawed and centrifuged for 5 minutes at 1000×g, both steps at 4° C. After that, required sample amount is taken from the top, and in a separate V-bottom plate diluted with ELISA diluent, dilution factor depending on the PBS or CD3 condition. […]

pEC50, pIC50: −log10 of the molar value. Read-outs that look alike come from different tables or passages of the source.

T2 sequence (Q13574 whole entry): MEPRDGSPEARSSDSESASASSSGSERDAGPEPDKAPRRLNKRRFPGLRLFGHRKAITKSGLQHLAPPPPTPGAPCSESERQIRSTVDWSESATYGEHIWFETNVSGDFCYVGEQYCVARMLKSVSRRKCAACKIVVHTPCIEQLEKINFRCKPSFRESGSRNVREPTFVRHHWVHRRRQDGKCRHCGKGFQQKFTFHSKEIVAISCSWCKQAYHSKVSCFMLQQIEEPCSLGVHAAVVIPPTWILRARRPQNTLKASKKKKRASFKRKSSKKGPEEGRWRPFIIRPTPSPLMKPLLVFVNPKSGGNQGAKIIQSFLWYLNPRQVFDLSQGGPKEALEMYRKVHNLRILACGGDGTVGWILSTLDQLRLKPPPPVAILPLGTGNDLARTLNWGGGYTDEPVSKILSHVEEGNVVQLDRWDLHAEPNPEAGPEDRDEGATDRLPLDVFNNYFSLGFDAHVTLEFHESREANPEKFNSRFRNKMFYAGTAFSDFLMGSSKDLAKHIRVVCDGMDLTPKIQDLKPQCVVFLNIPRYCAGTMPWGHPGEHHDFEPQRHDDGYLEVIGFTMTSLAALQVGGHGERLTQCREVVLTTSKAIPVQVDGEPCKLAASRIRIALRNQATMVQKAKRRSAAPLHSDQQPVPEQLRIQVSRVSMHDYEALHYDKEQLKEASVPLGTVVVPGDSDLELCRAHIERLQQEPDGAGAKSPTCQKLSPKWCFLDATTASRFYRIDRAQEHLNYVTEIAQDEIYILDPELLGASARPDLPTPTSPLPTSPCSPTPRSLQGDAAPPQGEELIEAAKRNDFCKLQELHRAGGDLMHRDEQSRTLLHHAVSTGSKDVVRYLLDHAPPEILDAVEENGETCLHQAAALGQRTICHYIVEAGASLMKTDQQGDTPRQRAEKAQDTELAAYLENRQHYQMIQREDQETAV
T1 sequence (P23743 whole entry): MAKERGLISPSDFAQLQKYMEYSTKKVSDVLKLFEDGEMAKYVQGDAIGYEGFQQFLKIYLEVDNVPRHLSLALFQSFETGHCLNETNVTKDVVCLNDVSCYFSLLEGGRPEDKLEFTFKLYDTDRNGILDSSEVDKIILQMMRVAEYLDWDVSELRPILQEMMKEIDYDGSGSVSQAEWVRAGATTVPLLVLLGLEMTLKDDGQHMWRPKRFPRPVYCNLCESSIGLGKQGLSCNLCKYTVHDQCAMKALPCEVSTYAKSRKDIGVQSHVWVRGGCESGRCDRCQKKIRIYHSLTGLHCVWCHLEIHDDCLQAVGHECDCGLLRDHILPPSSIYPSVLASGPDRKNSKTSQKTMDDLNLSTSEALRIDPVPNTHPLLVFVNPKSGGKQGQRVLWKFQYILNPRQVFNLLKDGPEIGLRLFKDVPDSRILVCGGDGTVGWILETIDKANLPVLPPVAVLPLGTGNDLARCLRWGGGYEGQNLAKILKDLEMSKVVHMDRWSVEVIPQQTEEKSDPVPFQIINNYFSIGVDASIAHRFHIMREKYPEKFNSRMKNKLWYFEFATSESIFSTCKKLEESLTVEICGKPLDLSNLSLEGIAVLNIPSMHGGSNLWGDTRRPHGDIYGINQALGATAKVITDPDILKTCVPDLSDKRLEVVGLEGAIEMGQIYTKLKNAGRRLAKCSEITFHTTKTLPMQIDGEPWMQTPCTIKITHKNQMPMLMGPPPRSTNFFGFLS

For `CC(C)(c1nnc(-c2cc3c(cc2F)C(F)(F)C[C@@H](N)C(=O)N3Cc2ccc(-c3ccc(OC(F)(F)F)cn3)cc2)o1)S(C)(=O)=O` (single isomer, unassigned) [Example 26], the pIC50 was 6.37 in test [1] and 5.05 in test [2]. The pEC50 in test [3] (Homo sapiens, T-cell) is 6.52. In addition, in test [3] (Homo sapiens, T-cell), the maximal effect (Emax) amounted to 97%.
Taken in the same sequence, the figures for `CCN1CC(c2nnc(-c3cc4c(cc3F)C(F)(F)C[C@@H](N)C(=O)N4Cc3ccc(OC(F)(F)F)cc3)o2)CC(F)(F)C1` (single isomer, unassigned) [Example 13] were 5.03, 5.65, below 5.00 and 58%.
Turning to `CC(C)(C#N)c1nnc(-c2cc3c(cc2F)C(F)(F)C[C@@H](N)C(=O)N3Cc2ccc(-n3nnc(C(F)(F)F)n3)cc2)o1` (single isomer, unassigned) [Example 20], the pIC50 in test [1] was 5.14; in test [2], 5.67. Moreover, in test [3] (Homo sapiens, T-cell), the pEC50 was 5.99. In test [3] (Homo sapiens, T-cell), the Emax turned out to be 161%.
With `COC(F)(c1nnc(-c2cc3c(cc2F)C(F)(F)C[C@H](N)C(=O)N3Cc2ccc(OC(F)(F)F)cc2)o1)C(F)(F)F` (single isomer, unassigned) [Example 4], the pIC50 in test [1] was 5.36. The pIC50 in test [2] is 5.05. Also, in test [3] (Homo sapiens, T-cell), the pEC50 is 6.09 and the Emax worked out at 91%.
`CC(C)(C)c1nnc(-c2cc3c(cc2F)C(F)(F)CC(N)C(=O)N3Cc2ccc(OC(F)(F)F)cc2)o1` (stereo not drawn) [Example 1, 3-amino-8-(5-tert-butyl-1,3,4-oxadiazol-2-yl)-5,5,7-trifluoro-1-[[4-(trifluoromethoxy)phenyl]methyl]-3,4-dihydro-1-benzazepin-2-one]: the pIC50 in test [1] was 4.47; in test [2], 4.70. Moreover, the pEC50 in test [3] (Homo sapiens, T-cell) is 5.98. For the same compound, the Emax in test [3] (Homo sapiens, T-cell) is 96%.
In the same order, the values of `CC(C)(C#N)c1nnc(-c2cc3c(cc2F)C(F)(F)CC(N)C(=O)N3Cc2ccc(-n3cc(C(F)(F)F)cn3)cc2)o1` (racemic) [Example 33, 2-[5-[(3S)-3-amino-5,5,7-trifluoro-2-oxo-1-[[4-[4-(trifluoromethyl)pyrazol-1-yl]phenyl]methyl]-3,4-dihydro-1-benzazepin-8-yl]-1,3,4-oxadiazol-2-yl]-2-methyl-propanenitrile and 2-[5-[(3R)-3-amino-5,5,7-trifluoro-2-oxo-1-[[4-[4-(trifluoromethyl)pyrazol-1-yl]phenyl]methyl]-3,4-dihydro-1-benzazepin-8-yl]-1,3,4-oxadiazol-2-yl]-2-methyl-propanenitrile] are 5.63, 5.77, 6.62 and 62%.
In the case of `CC(F)(F)c1ccc(-c2ccc(CN3C(=O)[C@H](N)CC(F)(F)c4cc(F)c(-c5nnc(C(C)(C)C#N)o5)cc43)cc2)nc1` (single isomer, unassigned) [Example 37], the pIC50 is 4.95 in test [1] and 5.55 in test [2]. Besides, the pEC50 in test [3] (Homo sapiens, T-cell) was 6.34. In addition, the Emax in test [3] (Homo sapiens, T-cell) amounted to 136%.
Consider “2-methyl-2-[5-[(3S)-3-amino-5,5,7-trifluoro-2-oxo-1-[[4-(trifluoromethoxy)phenyl]methyl]-3,4-dihydro-1-benzazepin-8-yl]-1,3,4-oxadiazol-2-yl]propanenitrile and 2-methyl-2-[5-[(3R)-3-amino-5,5,7-trifluoro-2-oxo-1-[[4-(trifluoromethoxy)phenyl]methyl]-3,4-dihydro-1-benzazepin-8-yl]-1,3,4-oxadiazol-2-yl]propanenitrile [Example 2]”, for which the pIC50 in test [1] was 5.85. For the same compound, in test [2], the pIC50 is 5.74. Besides, in test [3], the pEC50 was 6.08 and the “Emax IL2 (% activation)” value is on record as 256 % activation.
Regarding `COc1ccc(-c2ccc(CN3C(=O)[C@H](N)CC(F)(F)c4cc(F)c(-c5nnc(C(C)(C)C#N)o5)cc43)cc2)nc1` (single isomer, unassigned) [Example 38], the results for the pIC50 in test [1] and in test [2] were at most 4.22 and 5.24, respectively. For the same compound, the pEC50 in test [3] (Homo sapiens, T-cell) is 5.68. For the same compound, the Emax in test [3] (Homo sapiens, T-cell) amounted to 105%.
On to `CC(C)(C#N)c1nnc(-c2cc3c(cc2F)C(F)(F)C[C@@H](N)C(=O)N3Cc2ccc(-c3ccc(C(F)(F)F)cc3)nc2)o1` (single isomer, unassigned) [Example 28], for which the pIC50 in test [1] is 4.50. In test [2], the negative-log IC50 (pIC50) was 4.95. Further, in test [3] (Homo sapiens, T-cell), the pEC50 is 6.17 and the Emax came to 73%.
On to `CC(C)(C#N)c1nnc(-c2cc3c(cc2F)C(F)(F)C[C@@H](N)C(=O)N3Cc2ccc(-c3ccc(OC(F)(F)F)cn3)cc2)o1` (single isomer, unassigned) [Example 24], for which the pIC50 in test [1] is 5.73. Moreover, in test [2], the pIC50 is 5.62. For the same compound, in test [3] (Homo sapiens, T-cell), the pEC50 is 7.11 and the Emax stood at 140%.
Turning to “(3S)-3-amino-5,5,7-trifluoro-8-(5-morpholino-1,3,4-oxadiazol-2-yl)-1-[[4-(trifluoromethoxy)phenyl]methyl]-3,4-dihydro-1-benzazepin-2-one and (3R)-3-amino-5,5,7-trifluoro-8-(5-morpholino-1,3,4-oxadiazol-2-yl)-1-[[4-(trifluoromethoxy)phenyl]methyl]-3,4-dihydro-1-benzazepin-2-one [Example 3]”, in test [1], the pIC50 was 5.80. Also, the pIC50 in test [2] was 5.54. For the same compound, in test [3], the pEC50 was below 5.00 and the “Emax IL2 (% activation)” value is 37 % activation.

(Values after patent publication US20250236614A1, “BICYCLIC TETRAHYDROAZEPINE DERIVATIVES” (Hoffmann-La Roche Inc., priority 2022, published 2025).)
